Holding throughout (assay type): cell-based
Assay [1] relates to Staphylococcus epidermidis. Description: Antibacterial activity, Heart Infusion Agar Dilution Method (pH 7.2). As to the method:
(§1) Antibacterial activities of the compounds obtained in Examples 6 and 8 are measured according to the Heart Infusion Agar Dilution Method (pH 7.2). Cefazolin is used as a control.
For orientation: In agar dilution, organisms are placed on agar that contains the substance at set levels.

The next assay deals with Proteus rettgeri KY4289. The assay is described as above. Conditions: Providencia rettgeri. As to the method: as §1
For the next assay, the system named is Proteus vulgaris 6897. Described as above. As to the method: as §1
In a further assay the test system is Escherichia coli Juhl. Described as above. As to the method: as §1
For assay [2], the system named is Staphylococcus aureus 209-P. Described as above. The protocol: as §1
Another assay has as its system Serratia marcescens T-55. The description is as above. Conditions: T55. The protocol:
as §1

The next assay concerns Serratia marcescens T-26. The assay is described as above. Conditions: T26. As to the method:
as §1

Assay [3] has as its system Staphylococcus aureus Smith. Described as above. As to the method: as §1
Another assay concerns Proteus morganii KY4298. The assay is described as above. Conditions: Morganella morganii. The protocol: as §1
The test system of another assay is Escherichia coli NIHJC-2. The description is as above. The protocol: as §1
Another assay deals with Pseudomonas putida F264. The description is as above. As to the method:
as §1

Assay [4] concerns Pseudomonas aeruginosa No. 1. The description is as above. As to the method: as §1
Assay [5] deals with Escherichia coli GN 2411-5. Described as above. The settings on record: GN2411. The protocol:
as §1

In assay [6] the test system is Pseudomonas aeruginosa 145. The assay is described as above. As to the method: as §1
The test system of assay [7] is Klebsiella pneumoniae Y-60. Described as above. Conditions: Y60. As to the method:
as §1

The test system of assay [8] is Klebsiella pneumoniae 8045. Described as above. The protocol: as §1
The subject of the next assay is Proteus mirabilis 1287. The description is as above. The protocol:
as §1

Another assay deals with Escherichia coli KY4271. Briefly: Antibacterial activity, Heart Infusion Agar Dilution Method (pH 7.0). As to the method:
(§2) Antibacterial activities of the product obtained in this Example are measured according to the Heart Infusion Agar Dilution Method (pH 7.0).

For assay [9], the system named is Klebsiella pneumonia KY4275. Described as above. The settings on record: Klebsiella pneumoniae. As to the method:
as §2

A further assay relates to Vibrio percolans KY4174. The description is as above. Conditions: Comamonas terrigena. As to the method:
as §2

The subject of a further assay is Erwinia aroides KY3241. Described as above. As to the method:
as §2

The test system of a further assay is Bacillus subtilis KY4273. The description is as above. The protocol:
as §2

Another assay concerns Proteus vulgaris KY4277. Described as above. As to the method: as §2
The test system of assay [10] is Salmonella typhosa KY4278. Described as above. The settings on record: Salmonella enterica. As to the method:
as §2

Assay [11] relates to Staphylococcus aureus KY4279. Described as above. As to the method:
as §2

The test system of another assay is Shigella sonnei KY4281. The description is as above. The protocol: as §2
The mark [12] stands for this setting: Escherichia coli Juhl, agar dilution, read-out: MIC.
[13] abbreviates: NIHJC2, Escherichia coli NIHJC-2, agar dilution, pH 7.2, read-out: MIC.

Structures are written as SMILES. In brackets after ≈: the same amount, converted by molar mass. Where two headings read alike, the source gives them in different places.

Usually MIC stands for the smallest concentration in the dilution series that meets the test's criterion for growth inhibition.

With `CO/N=C(\C(=O)N[C@@H]1C(=O)N2C(C(=O)O)=CC=C[C@H]12)c1csc(N)n1` (relative stereo) [Example 8, (±)-cis-7-[2-(2-amino-4-thiazolyl)-2-syn-methoxyiminoacetamido]-1-azabicyclo[4,2,0]oct-2,4-diene-8-on-2-carboxylic acid], the MIC in assay [1] was at least 50 µg/mL; in the assay with Proteus rettgeri KY4289, 6.25 µg/mL (≈ 17.2 µM); with Proteus vulgaris 6897, 6.25 µg/mL (≈ 17.2 µM); in the assay on Escherichia coli Juhl (setting [12]) it was 50 µg/mL (≈ 138 µM); in assay [2] it was at least 50 µg/mL; against Serratia marcescens T-55, 50 µg/mL (≈ 138 µM). Moreover, the MIC in the assay on Serratia marcescens T-26 was at least 50 µg/mL; in [3], at least 50 µg/mL; with Proteus morganii KY4298, 12.5 µg/mL (≈ 34.4 µM); with Escherichia coli NIHJC-2 (setting [13]), 25 µg/mL (≈ 68.8 µM); in the assay with Pseudomonas putida F264 it was 12.5 µg/mL (≈ 34.4 µM); in assay [4], at least 50 µg/mL. In addition, the MIC was 25 µg/mL (≈ 68.8 µM) in [5]; at least 50 µg/mL in assay [6]; at least 50 µg/mL in [7]; 6.25 µg/mL (≈ 17.2 µM) in [8]; 6.25 µg/mL (≈ 17.2 µM) in the assay with Proteus mirabilis 1287.
As to `CO/N=C(/C(=O)N[C@@H]1C(=O)N2C(C(=O)O)=CC=C[C@H]12)c1csc(N)n1` (relative stereo) [Example 6, (±)-cis-7-[2-(2-amino-4-thiazolyl)-2-anti-methoxyiminoacetamido]-1-azabicyclo[4,2,0]oct-2,4-diene-8-on-2-carboxylic acid], the MIC (in assay [1]; against Proteus rettgeri KY4289; against Proteus vulgaris 6897; with Escherichia coli Juhl (setting [12]); in [2]; in the assay with Serratia marcescens T-55) was at least 50 µg/mL throughout. The minimum inhibitory concentration (MIC) (against Serratia marcescens T-26; in assay [3]; in the assay with Proteus morganii KY4298; with Escherichia coli NIHJC-2 (setting [13]); against Pseudomonas putida F264; in assay [4]) was at least 50 µg/mL each time. The MIC was at least 50 µg/mL in assay [5]; at least 50 µg/mL in [6]; at least 50 µg/mL in [7]; 50 µg/mL (≈ 138 µM) in [8]; at least 50 µg/mL against Proteus mirabilis 1287.
Consider `Cc1nnc(SCC2=C(C(=O)O)N3C(=O)[C@@H](NC(=O)Cn4cnnn4)[C@H]3SC2)s1` [Cefazolin, reference compound], for which the MIC in assay [1] was 0.78 µg/mL (≈ 1.72 µM); against Proteus rettgeri KY4289, 25 µg/mL (≈ 55 µM); against Proteus vulgaris 6897, 12.5 µg/mL (≈ 27.5 µM); in the assay with Escherichia coli Juhl (Escherichia coli), 1.56 µg/mL (≈ 3.43 µM); in [2], below 0.05 µg/mL; against Serratia marcescens T-55 it was 50 µg/mL (≈ 110 µM). Besides, the MIC was above 100 µg/mL in the assay with Serratia marcescens T-26; 0.4 µg/mL (≈ 0.88 µM) in assay [3]; above 100 µg/mL against Proteus morganii KY4298; 1.56 µg/mL (≈ 3.43 µM) with Escherichia coli NIHJC-2 (Escherichia coli, NIHJC2, pH 7.2); above 100 µg/mL in the assay on Pseudomonas putida F264; above 100 µg/mL in assay [6]. Moreover, the MIC turned out to be 3.12 µg/mL (≈ 6.86 µM) in [7], 0.78 µg/mL (≈ 1.72 µM) in assay [8] and 12.5 µg/mL (≈ 27.5 µM) in the assay on Proteus mirabilis 1287.
As to `O=C(Cc1cccs1)NC1C(=O)N2C(C(=O)O)=CC=CC12` (stereo not drawn) [Example 10, (±)-cis-7-[2-(thiophene-2-yl)acetylamino]-1-azabicyclo[4,2,0]oct-2,4-diene-8-on-2-carboxylic acid], the MIC in the assay on Escherichia coli KY4271 was above 55.6 µg/mL; in assay [9], 27.8 µg/mL (≈ 91.3 µM); against Vibrio percolans KY4174, 55.6 µg/mL (≈ 183 µM); in the assay with Erwinia aroides KY3241, 13.9 µg/mL (≈ 45.7 µM); with Bacillus subtilis KY4273, 55.6 µg/mL (≈ 183 µM); in the assay with Proteus vulgaris KY4277 it was 27.8 µg/mL (≈ 91.3 µM). The MIC in assay [10] was 13.9 µg/mL (≈ 45.7 µM); in assay [11], 27.8 µg/mL (≈ 91.3 µM); with Shigella sonnei KY4281, above 55.6 µg/mL.

The values above are taken from patent publication US4343943A, “Cephalosporin analogs” (Kyowa Hakko Kogyo Co., Ltd., priority 1978, dated 1982).
